According to PubChem BioAssay (NCI):
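How tested: cells in 96-well plates exposed to compound for 48 hours at five concentrations. Abbreviation: GI50, concentration required for 50% inhibition of growth. TGI is the concentration that stops growth completely.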

Assays:
Test in all cases: inhibition of tumour cell growth, NCI panel, 48 h
SF-539 CNS = tested on: SF-539 CNS
HL-60(TB) leukemia = tested on: HL-60(TB) leukemia
U251 CNS = tested on: U251 CNS
A498 renal = tested on: A498 renal
DU-145 prostate = tested on: DU-145 prostate
NCI-H522 lung = tested on: NCI-H522 lung
OVCAR-5 ovarian = tested on: OVCAR-5 ovarian
SR leukemia = tested on: SR leukemia
OVCAR-4 ovarian = tested on: OVCAR-4 ovarian
COLO 205 colon = tested on: COLO 205 colon

| Compound | TGI (SF-539 CNS) | TGI (HL-60(TB) leukemia) | TGI (U251 CNS) | TGI (A498 renal) | TGI (DU-145 prostate) | TGI (NCI-H522 lung) | TGI (OVCAR-5 ovarian) | TGI (SR leukemia) | TGI (OVCAR-4 ovarian) | TGI (COLO 205 colon) | GI50 (SF-539 CNS) | GI50 (HL-60(TB) leukemia) | GI50 (U251 CNS) | GI50 (A498 renal) | GI50 (DU-145 prostate) | GI50 (NCI-H522 lung) | GI50 (OVCAR-5 ovarian) | GI50 (SR leukemia) | GI50 (OVCAR-4 ovarian) | GI50 (COLO 205 colon) |
| --- | --- | --- | --- | --- | --- | --- | --- | --- | --- | --- | --- | --- | --- | --- | --- | --- | --- | --- | --- | --- |
| CCN1CCN(c2nc3ccccc3nc2C(=O)c2ccc(OC)c(OC)c2)CC1 | 3.14 µM | > 100 µM | 30.2 µM | > 100 µM | > 100 µM | 27.9 µM | > 100 µM | 24.4 µM | 25.7 µM | 2.91 µM |  |  |  |  |  |  |  |  |  |  |
| CC1C(=O)c2cc3c(cc2CCN(C)Cc2c1ccc1c2OCO1)OCO3 (stereo not given) | > 75 µg/mL | > 75 µg/mL | > 75 µg/mL | > 75 µg/mL | > 75 µg/mL | > 75 µg/mL | > 75 µg/mL | 40.9 µg/mL | > 75 µg/mL | > 75 µg/mL | 71.2 µg/mL | 21.2 µg/mL | 67.5 µg/mL | > 75 µg/mL | > 75 µg/mL | 34.6 µg/mL | > 75 µg/mL | 13.3 µg/mL | 44.4 µg/mL | 26.2 µg/mL |
| O=C1/C(=C/c2[nH]ncc2-c2ccc(Cl)cc2)C(=O)N(c2ccccc2)C1c1ccccc1 (stereo not given) | 58.8 µM | 37 µM | 50.2 µM | 69.6 µM | 50.3 µM | 27.2 µM |  | 30 µM | 96.5 µM | 32.8 µM |  |  |  |  |  |  |  |  |  |  |
| Clc1ccc(Nc2nc(Nc3ccccc3)nc(Nc3ccc(-c4cc(-c5ccc(Cl)cc5)on4)cc3)n2)cc1 | > 100 µM | > 100 µM | > 100 µM | 55.1 µM | 80.3 µM | 36.7 µM | 89.1 µM | > 100 µM | > 100 µM | 32.5 µM | 37.9 µM | 51.5 µM | 17.7 µM | 3.38 µM | 20.4 µM | 16.2 µM | 20.9 µM | 26 µM | 15.4 µM | 11.9 µM |
| COc1cccc(/C=N/[N-]C(N)=O)c1[O-].[Ni+2].[OH3+] | 2.28 µM | 0.86 µM | 0.816 µM | 3.15 µM |  | 0.25 µM | 2.55 µM | 2.64 µM | 1.01 µM | 0.291 µM |  | 0.111 µM |  |  |  |  |  |  |  |  |
| CN(C)C(=O)OC1=CC2CCC(C1)N2C (stereo not given) | > 100 µM |  | > 100 µM | > 100 µM | > 100 µM | > 100 µM | > 100 µM | > 100 µM | > 100 µM | > 100 µM |  |  |  |  |  |  |  |  |  |  |
| COc1cc(C2c3cc4c(cc3[C@@H](Nc3ccc(Oc5ccccc5)cc3)C3COC(=O)[C@H]23)OCO4)cc(OC)c1O (stereo not given in full) | > 28.2 µM | 2.23 µM | > 27.9 µM | 9.6 µM |  | > 78.9 µM | > 100 µM |  | > 100 µM | 13 µM |  |  |  |  |  |  |  |  |  |  |
| CC1=C[C@@H](C)C[C@]2(C)CC[C@H](O2)[C@]23CC[C@](CO)(C[C@H](O2)[C@@H]2O[C@@](C)(CC2=O)[C@@H](O)[C@H]2CC[C@@]4(CCC[C@@H](O4)[C@H](C)C(=O)O[C@H]4C[C@H]([C@]5(O)OCC[C@H](C)[C@@H]5O)O[C@H]4C=C1)O2)O3 |  | 9.73 µM | 0.438 µM | 0.0156 µM | > 10 µM | > 2.1 µM | > 10 µM | > 10 µM | > 10 µM | 0.00377 µM |  |  |  |  |  |  |  |  |  |  |
| O=C(CC(c1ccccc1)C1C(=O)NC(=S)NC1=O)c1ccc([N+](=O)[O-])cc1 (stereo not given) | > 100 µM | > 100 µM | > 100 µM | > 100 µM | > 100 µM | > 100 µM | > 100 µM | > 100 µM | > 100 µM | > 100 µM |  |  |  |  |  |  |  |  |  |  |
| O/C(=C\c1nc2ccccc2nc1/C=C(\O)c1ccc(F)cc1)c1ccc(F)cc1 | > 100 µM | > 100 µM | > 100 µM | > 100 µM | > 100 µM | > 100 µM | > 100 µM | > 100 µM | > 100 µM | > 100 µM |  |  |  |  |  |  |  |  |  |  |
| CC(C)CC1c2[nH]c3ccccc3c2C[C@H]2C(=O)NC(CCCCNC(=O)OC(C)(C)C)C(=O)N12 (stereo not given in full) |  | 46.9 µM | > 100 µM | > 100 µM | > 100 µM | 72.3 µM | > 100 µM | 50 µM | > 100 µM | 72.2 µM |  |  |  |  |  |  |  |  |  |  |
| Cc1oc(N)c(S(=O)(=O)c2cc3ccccc3n(O)c2=N)c1C | > 100 µM |  | > 100 µM | > 100 µM | > 100 µM | > 100 µM | > 100 µM |  | > 100 µM | > 100 µM |  |  |  |  |  |  |  |  |  |  |
| O=C(Nc1ccc(-n2ccc3c(NC(=O)c4ccccc4)nccc32)cc1)Nc1cccc(C(F)(F)F)c1 | 18.4 µM | 14.2 µM | 10.8 µM | 21 µM | 14.8 µM | 15.3 µM | 22.2 µM | 4.28 µM | 10.5 µM | 19.6 µM | 1.75 µM | 3.92 µM | 2.04 µM | 6.39 µM | 4.2 µM | 1.69 µM | 8.72 µM | 1.49 µM | 2.65 µM | 6.19 µM |
| N=c1ccc2nc(N)nn(O)c-2c1 | > 100 µM | > 100 µM | > 100 µM | > 100 µM | > 100 µM | > 100 µM | > 100 µM | > 100 µM | > 100 µM | > 100 µM |  |  |  |  |  |  |  |  |  |  |
| CC1(C(=O)O)C[C@](C)(C(=O)OCc2ccccc2)C[C@](C)(C(=O)OCc2ccccc2)C1 (stereo not given in full) | 64.5 µM | 53.9 µM |  |  | > 100 µM | 60 µM | > 100 µM | 83.7 µM | > 100 µM | 33.8 µM |  |  |  |  |  |  |  |  |  |  |
